Measurements: patent US7915239B2, “Process for treating lameness administration of a bisphosphonic acid derivative” (Ceva Sante Animale, priority 1998, dated 2011)

Assays:
Type in all cases: in vivo
[1] = tested on: lameness associated with bone lesions during osteochondrosis; assay: Clinical study in horses with lameness associated with sub-chondral cysts during osteochondrosis; settings: procedure as Example 1
Protocol: The study was carried out on 24 horses, the diagnosis of the navicular disease causing lameness being based on the following criteria: • local signs in the palmar region: heat, swelling, pain • functional signs of limping graded on a scale from 0 (no sign of limping) to 4 (trouble in bearing weight when at rest and/or in motion and difficulty in moving around) • a functional test of locomotion after flexing the palmar region, also assessed on a scale from 0 (locomotion not changed by flexure) to 4 (start of suppression of bearing weight) • a radiological examination to assess radiological signs in the palmar region qualitatively. All the animals received, as a single treatment, disodium tiludronate in the form of an injectable solution administered intravenously at a dose of 0.1 mg/kg, at a weekly administration rate for 6 to 10 weeks. The first day of treatment corresponds to D0. To assess the effects of the treatment, the animals were reviewed 1 month after D0 (M1), 2 months after D0 (M2) and 6 months after D0 (M6). The effects of the treatment were assessed with regard to: • the local signs, the functional signs and the test of locomotion after flexure as defined during inclusion of the animal into the test • a radiological examination to assess the change in the radiological signs • an assessment of the resumption of the animal's sporting activity. […] A clinical study was carried out to evaluate the effects of a treatment with disodium tiludronate on horses which develop lameness associated with bone lesions in the form of sub-chondral cysts during osteochondrosis. The test procedure and the clinical monitoring of the animals were the same as those described in Example 1, except that the local, functional and radiological signs were evaluated in the joints affected by osteochondrosis. 5 horses were included in this test. The results obtained were as follows (expressed as a percentage of animals present in each category): […]

[2] = tested on: lameness during enthesopathy of the insertion of the tendons and the ligaments; assay: Clinical study in horses with lameness during enthesopathy of the insertion of the tendons and the ligaments; settings: procedure as Example 1
Protocol: The study was carried out on 24 horses, the diagnosis of the navicular disease causing lameness being based on the following criteria: • local signs in the palmar region: heat, swelling, pain • functional signs of limping graded on a scale from 0 (no sign of limping) to 4 (trouble in bearing weight when at rest and/or in motion and difficulty in moving around) • a functional test of locomotion after flexing the palmar region, also assessed on a scale from 0 (locomotion not changed by flexure) to 4 (start of suppression of bearing weight) • a radiological examination to assess radiological signs in the palmar region qualitatively. All the animals received, as a single treatment, disodium tiludronate in the form of an injectable solution administered intravenously at a dose of 0.1 mg/kg, at a weekly administration rate for 6 to 10 weeks. The first day of treatment corresponds to D0. To assess the effects of the treatment, the animals were reviewed 1 month after D0 (M1), 2 months after D0 (M2) and 6 months after D0 (M6). The effects of the treatment were assessed with regard to: • the local signs, the functional signs and the test of locomotion after flexure as defined during inclusion of the animal into the test • a radiological examination to assess the change in the radiological signs • an assessment of the resumption of the animal's sporting activity. […] A clinical study was carried out to evaluate the effects of a treatment with disodium tiludronate on horses which develop lameness during enthesopathy of the insertion of the tendons and the ligaments. The test procedure and the clinical monitoring of the animals were the same as those described in Example 1, except that the local, functional and radiological signs were evaluated in the region of the tendon or ligament insertions at the source of lameness. 6 horses were included in this test. The results obtained were as follows (expressed as a percentage of animals present in each category): […]

[3] = tested on: lameness during bone spavin; assay: Clinical study in horses with lameness during bone spavin (osteoarthrosis of the distal stage of the tarsus); settings: for percentage of animals in category Average / percentage of animals in category Favourable / percentage of animals in category Mediocre / percentage of animals in category Poor / percentage of animals in category Very favourable: procedure as Example 1
Protocol: The study was carried out on 24 horses, the diagnosis of the navicular disease causing lameness being based on the following criteria: • local signs in the palmar region: heat, swelling, pain • functional signs of limping graded on a scale from 0 (no sign of limping) to 4 (trouble in bearing weight when at rest and/or in motion and difficulty in moving around) • a functional test of locomotion after flexing the palmar region, also assessed on a scale from 0 (locomotion not changed by flexure) to 4 (start of suppression of bearing weight) • a radiological examination to assess radiological signs in the palmar region qualitatively.
All the animals received, as a single treatment, disodium tiludronate in the form of an injectable solution administered intravenously at a dose of 0.1 mg/kg, at a weekly administration rate for 6 to 10 weeks. The first day of treatment corresponds to D0.
To assess the effects of the treatment, the animals were reviewed 1 month after D0 (M1), 2 months after D0 (M2) and 6 months after D0 (M6). The effects of the treatment were assessed with regard to: • the local signs, the functional signs and the test of locomotion after flexure as defined during inclusion of the animal into the test • a radiological examination to assess the change in the radiological signs • an assessment of the resumption of the animal's sporting activity.
A clinical study was carried out in order to evaluate the effects of a treatment with disodium tiludronate on horses which develop lameness during bone spavin (which is osteoarthrosis of the distal stage of the tarsus).
The test procedure and the clinical monitoring of the animals were the same as those described in Example 1, except that the local, functional and radiological signs were assessed in the region of the hock.
5 horses were included in this test.
The results obtained were as follows (expressed as a percentage of animals present in each category): […]

[4] = tested on: lameness during navicular disease (podotrochlear syndrome); assay: Clinical study in horses with lameness during navicular disease (podotrochlear syndrome); settings: for percentage of animals in category Average / percentage of animals in category Favourable / percentage of animals in category Mediocre / percentage of animals in category Poor / percentage of animals in category Very favourable: 0.1 mg/kg i.v. weekly for 6 to 10 weeks
Protocol: A clinical study was carried out to evaluate the effects of a treatment with disodium tiludronate on horses which develop lameness during navicular disease (also known as podotrochlear syndrome). The study was carried out on 24 horses, the diagnosis of the navicular disease causing lameness being based on the following criteria: • local signs in the palmar region: heat, swelling, pain • functional signs of limping graded on a scale from 0 (no sign of limping) to 4 (trouble in bearing weight when at rest and/or in motion and difficulty in moving around) • a functional test of locomotion after flexing the palmar region, also assessed on a scale from 0 (locomotion not changed by flexure) to 4 (start of suppression of bearing weight) • a radiological examination to assess radiological signs in the palmar region qualitatively. To be included, the animal had to show no signs or lesions of septic arthritis, or any fractures of the bones in the palmar region. Also, it needed to have not received an injection for anti-inflammatory treatment in the joints of the palmar region. The wearing of an orthopaedic shoe was not contra-indicated since most of the animals had been […] for several weeks and were already wearing a shoe of this type. All the animals received, as a single treatment, disodium tiludronate in the form of an injectable solution administered intravenously at a dose of 0.1 mg/kg, at a weekly administration rate for 6 to 10 weeks. The first day of treatment corresponds to D0. To assess the effects of the treatment, the animals were reviewed 1 month after D0 (M1), 2 months after D0 (M2) and 6 months after D0 (M6). The effects of the treatment were assessed with regard to: • the local signs, the functional signs and the test of locomotion after flexure as defined during inclusion of the animal into the test • a radiological examination to assess the change in the radiological signs • an assessment of the resumption of the animal's sporting activity. […] The table below summarizes the effects of the treatment (expressed as a percentage of animals present in each category): […]

[5] = Examination at M1 (1 month after D0)
[6] = Examination at M2 (2 months after D0)
[7] = Examination at M6 (6 months after D0)

With `O=P(O)(O)C(Sc1ccc(Cl)cc1)P(=O)(O)O` [disodium tiludronate, 4-chlorophenylthiomethylenebisphosphonic acid] the “percentage of animals in category Average” value [1, 5] was 40%, the “percentage of animals in category Favourable” value [1, 5] was 0% and the “percentage of animals in category Mediocre” value [1, 5] was 0%. The “percentage of animals in category Poor” value [1, 5] was 20%, the “percentage of animals in category Very favourable” value [1, 5] was 40% and the “percentage of animals in category Average” value [1, 6] was 20%. For the same compound, the “percentage of animals in category Favourable” value [1, 6] was 40%, the “percentage of animals in category Mediocre” value [1, 6] was 0% and the “percentage of animals in category Poor” value [1, 6] was 20%. For the same compound, the “percentage of animals in category Very favourable” value [1, 6] was 20%, the “percentage of animals in category Average” value [1, 7] was 0% and the “percentage of animals in category Favourable” value [1, 7] was 0%. For the same compound, the “percentage of animals in category Mediocre” value [1, 7] was 40%, the “percentage of animals in category Poor” value [1, 7] was 0% and the “percentage of animals in category Very favourable” value [1, 7] was 60%. For the same compound, the “percentage of animals in category Average” value [2, 5] was 33%, the “percentage of animals in category Favourable” value [2, 5] was 50% and the “percentage of animals in category Mediocre” value [2, 5] was 17%. The “percentage of animals in category Poor” value [2, 5] was 0%, the “percentage of animals in category Very favourable” value [2, 5] was 0% and the “percentage of animals in category Average” value [2, 6] was 33%. For the same compound, the “percentage of animals in category Favourable” value [2, 6] was 67%, the “percentage of animals in category Mediocre” value [2, 6] was 0% and the “percentage of animals in category Poor” value [2, 6] was 0%. For the same compound, the “percentage of animals in category Very favourable” value [2, 6] was 0%, the “percentage of animals in category Average” value [2, 7] was 0% and the “percentage of animals in category Favourable” value [2, 7] was 40%. The “percentage of animals in category Mediocre” value [2, 7] was 20%, the “percentage of animals in category Poor” value [2, 7] was 0% and the “percentage of animals in category Very favourable” value [2, 7] was 40%. For the same compound, the “percentage of animals in category Average” value [3, 5] was 60%, the “percentage of animals in category Favourable” value [3, 5] was 40% and the “percentage of animals in category Mediocre” value [3, 5] was 0%. For the same compound, the “percentage of animals in category Poor” value [3, 5] was 0%, the “percentage of animals in category Very favourable” value [3, 5] was 0% and the “percentage of animals in category Average” value [3, 6] was 0%. The “percentage of animals in category Favourable” value [3, 6] was 60%, the “percentage of animals in category Mediocre” value [3, 6] was 0% and the “percentage of animals in category Poor” value [3, 6] was 0%. For the same compound, the “percentage of animals in category Very favourable” value [3, 6] was 40%, the “percentage of animals in category Average” value [3, 7] was 20% and the “percentage of animals in category Favourable” value [3, 7] was 20%. For the same compound, the “percentage of animals in category Mediocre” value [3, 7] was 0%, the “percentage of animals in category Poor” value [3, 7] was 20% and the “percentage of animals in category Very favourable” value [3, 7] was 40%. For the same compound, the “change in lameness induced by bone spavin after treatment” value ([3]; after treatment) was “favourable to very favourable in most of the animals”, the “percentage of animals in category Average” value [4, 5] was 38% and the “percentage of animals in category Favourable” value [4, 5] was 46%. For the same compound, the “percentage of animals in category Mediocre” value [4, 5] was 4%, the “percentage of animals in category Poor” value [4, 5] was 4% and the “percentage of animals in category Very favourable” value [4, 5] was 8%. The “percentage of animals in category Average” value [4, 6] was 26%, the “percentage of animals in category Favourable” value [4, 6] was 43% and the “percentage of animals in category Mediocre” value [4, 6] was 5%. The “percentage of animals in category Poor” value [4, 6] was 0%, the “percentage of animals in category Very favourable” value [4, 6] was 26% and the “percentage of animals in category Average” value [4, 7] was 27%. The “percentage of animals in category Favourable” value [4, 7] was 46%, the “percentage of animals in category Mediocre” value [4, 7] was 9% and the “percentage of animals in category Poor” value [4, 7] was 0%. For the same compound, the “percentage of animals in category Very favourable” value [4, 7] was 18%, the “time at which the benefit of the treatment is optimal” value ([4]; after administration of the treatment is started) was 2 months and the “share of animals with complete recovery” value ([4]; at the end of administration of the treatment) was “a quarter of the animals”. The “radiological examination of the palmar region” value ([4]; pathological radiological signs) was “did not reveal any change in kinetics of the pathological radiological signs”.
